Data from US5322840A, “Treatment of hyperlipemia and hypertriglyceridemia” (Centre d'Etudes Experimentales et Cliniques de …, priority 1990, dated 1994).
“Also recorded” adds a separate entry of the source.

Assays:
[1] = test system: hypertriglyceridemia provoked by Triton WR1339 in Sprague-Dawley rats; experiment: Triton-provoked hypertriglyceridemia in rats, per os; format: in vivo, rat; details: for Triglycerides: Triton controls 7.53 ± 0.49; for triglycerides plasma concentrations: per os in doses of 3 and 30 mg/kg; for triglycerides plasma concentrations / action on the increase in the circulating triglycerides: Triton model; for action on the increase in the circulating triglycerides: per os
Method: (§1) Sprague-Dawley male white rats, Iffa Credo, of an average weight of 260-270 g.
(§2) The hypertriglyceridemia is obtained by the intravenous (iv) injection of Triton WR1339 (tyloxapol) in a dose of 600 mg/kg, obtained from the Sigma Chemical Company, N. T 8761 (marginal vein of the ear of the rabbit, jugular vein or vein of the penis of the rat, under slight ether anesthesia, the pentobarbital which attaches itself on the A1 receptors being capable of interacting with the molecules used (Lhose et al., 1985). All the animals used had fasted for 15 hours. The blood was collected over heparin, centrifuged for 20 minutes (3000 rpm at 4° C.). In the serum collected, the TG (triglycerides) are determined in accordance with the GPO-PAP method Boeringher Peridochrom® Kit, item 701-882.
The animals are divided into six lots:
one control-control lot receiving per os isotonic saline solution in a volume of 0.2 ml/100 g of rat 30 minutes before the iv injection of isotonic saline solution.
a Triton control lot receiving per os isotonic saline solution 30 minutes before the iv injection of Triton.
an Agr 529 lot (3 mg/kg in a volume of 0.2 ml/100 g of rat), 30 minutes before the iv injection of Triton.
one lot receiving, under the same conditions, 30 mg/kg of Agr 529 per os.
two lots receiving, under the same conditions as previously, 3 and 30 mg/kg of Agr 540 per os.

[2] = test system: normal animals; experiment: Administration in normal animals, hypolipemia (conclusion, route not stated); format: in vivo
Method: (§3) In normal animals, the fatty acids, triglycerides and cholesterol are determined by automated enzymatic reactions.

[3] = report submitted on Agr 529; cited from earlier work
[4] = test system: hypertriglyceridemia provoked by Triton WR1339 in Fauve de Bourgogne rabbits; experiment: Triton-provoked hypertriglyceridemia in rabbits, Agr 529 iv; format: in vivo, rabbit
Method: Fauve de Bourgogne rabbits of an average weight of 2 kg (EGAV).
as §2
(§4) The animals are divided into two lots:
a control lot (6 animals) receiving isotonic saline solution iv in a volume of 0.5 ml/kg two hours before the injection of Triton and the same dose of saline solution as previously.
a treated lot (7 animals) receiving 2 mg/kg of Agr 529 iv in a volume of 0.5 ml/kg two hours before the injection of Triton and a new dose of Agr 529 (2 mg/kg).
A sampling of arterial blood, two hours after the injection of the Triton, permits determination of the triglycerides.

[5] = test system: hypertriglyceridemia provoked by Triton WR1339 in Sprague-Dawley rats; experiment: Triton-provoked hypertriglyceridemia in rats, intraperitoneal route; format: in vivo, rat
Method: as §1, §2, §4
a control lot (4 animals) receiving isotonic saline solution in a volume of 0.2 ml/100 g of rat by intraperitoneal injection (ip), 20 minutes before the injection of the Triton (iv).
a treated lot (5 animals) receiving 2 mg/kg of Agr 529 ip, under the same conditions as the controls.
Two hours later, the animals are sacrificed by decapitation; the blood is collected by the method previously described, for determination of the triglycerides.

[6] = test system: normal rats; experiment: Normal rats, intravenous administration, plasma lipids; format: in vivo, rat
Method: as §3
The animals are distributed into six lots of five animals each:
a control lot receiving the placebo (0.9% isotonic saline solution),
five treated lots receiving 0.03, 0.1, 0.3, 1 and 3 mg/kg of Agr 529 respectively by intravenous injection.
The animals are sacrificed two hours after the injection of the product.

[7] = test system: normal rats; experiment: Normal rats, intraperitoneal administration, plasma lipids; format: in vivo, rat
Method: as §3
The animals are distributed in five lots of five animals each:
[…] receiving 0.1, 0.3, and 3 mg/kg.
The animals are sacrificed two hours after the administration of the Agr 529.

[8] = test system: normal rats; experiment: Kinetic study of Agr 529 at 3 mg/kg iv in normal rats; format: in vivo, rat
Method: as §3
c) Kinetic study of Agr 529 in an amount of 3 mg/kg iv (FIG. V, VI, VII, VIII).

[9] = test system: HMG CoA reductase (β-hydroxy-β-methylglutaryl CoA reductase); experiment: In vitro study on microsomal fraction of liver: HMG CoA reductase activity; format: biochemical
[10] = test system: ACAT (cholesterol-O-acyl transferase); experiment: In vitro study on microsomal fraction of liver: ACAT activity; format: biochemical; details: 'the same' = no action
[11] = rats, 30 mg/kg P.O. + Triton 600 mg/kg iv

## CCC(=O)OC[C@H]1O[C@@H](n2cnc3c(NCCCC(N)=O)ncnc32)[C@H](OC(=O)CC)[C@@H]1OC(=O)CC [Agr 540, 6-(3-carboxamido-propylamino)-9-(2', 3', 5', tripropionyl-β-D-ribosyl) purine]
[1]; rats n = 6, first Agr 540 column, head prints 30 mg/kg P.O. + Triton 600 mg/kg iv
  Triglycerides: 5.65 ± 0.46 mmols/liter
[1]; [11]
  Triglycerides: 3.67 ± 0.59 mmols/liter
[1]; rats
  triglycerides plasma concentrations: return the triglycerides plasma concentrations to normal
  action on the increase in the circulating triglycerides: significantly oppose the increase in the circulating triglycerides
[2]
  hypolipemia (reduction of fatty acids, phospholipides, triglycerides and cholesterol): causes a hypolipemia
[3]
  absorption per os relative to Agr 529: better absorbed per os

## NC(=O)CCCNc1ncnc2c1ncn2[C@@H]1O[C@H](CO)[C@@H](O)[C@H]1O [Agr 529, (N6-3-carboxamido-propyl) adenosine]
[4]; 2 mg/kg intravenously in rabbits, Triton WR 1339 model
  plasma concentration of the circulating triglycerides: normalized the plasma concentration of the circulating triglycerides
[4]; rabbits n = 7, 2 hours after Agr 529 2 mg/kg iv, before Triton
  Triglycerides time = 2: 3.19 ± 0.38 mmol/L
[4]; rabbits n = 7, 2 hours after second Agr 529 2 mg/kg iv + Triton 600 mg/kg iv
  Triglycerides time = 4: 4.65 ± 0.44 mmol/L
[4]; rabbits, Agr 529 2 mg/kg iv, control increase 196.5%
  increase of the triglycerides caused by Triton: 45%
[4]; rabbits, test lot n = 7, time = 0, before first injection of Agr 529 2 mg/kg iv
  Triglycerides time = 0: 1.95 ± 0.34 mmol/L
[4]; rabbits, time 4, Agr 529 2 mg/kg iv
  concentration of triglycerides less than the Triton controls: 150%
[5]; 2 mg/kg intraperitoneally, Triton WR 1339 model
  plasma concentration of the circulating triglycerides: normalized the plasma concentration of the circulating triglycerides
[5]; rats n = 5, Agr 529 2 mg/kg ip + Triton 600 mg/kg iv, two hours later, controls 6.32 ± 0.92
  Triglycerides: 2.90 ± 0.26 mmols/liter
[5]; rats, Agr 529 2 mg/kg ip, Triton model, significant (**)
  decrease in the quantity of triglycerides in circulation: 54%
[1]; rats, 3 mg/kg P.O. + Triton 600 mg/kg iv
  Triglycerides: 4.87 ± 0.69 mmols/liter
[1]; [11]
  Triglycerides: 4.64 ± 0.74 mmols/liter
[1]; rats
  triglycerides plasma concentrations: return the triglycerides plasma concentrations to normal
  action on the increase in the circulating triglycerides: significantly oppose the increase in the circulating triglycerides
[6]; 3 mg/kg iv
  hyperglycemia: hyperglycemia is furthermore noted
[6]; 3 mg/kg iv, two hours after the injection, 3 mg/kg
  concentration of plasma triglycerides, total cholesterol, fatty acids and phospholipides: significant decrease
[6]; Rattus norvegicus, 2 h, iv, doses 0.03-3 mg/kg, two hours after injection, read-out: dose from which the hypolipemizing effect appears
  minimal effective dose: ≥ 0.1 mg/kg
[6]; intravenous administration
  plasma concentrations of fatty acids, phospholipides, triglycerides and total cholesterol, dose dependence: decrease, as a function of the doses
[6]; route not specified
  cholesterol and triglyceride concentrations of the high density lipoproteins (HDL): No action
[7]; 0.3 mg/kg intraperitoneal
  hyperglycemia: hyperglycemia is no longer found
[7]; Rattus norvegicus, ip, 2 h, intraperitoneal, two hours after administration, read-out: dose from which the hypolipemizing effect starts to be significant
  minimal effective dose: ≥ 0.3 mg/kg
[7]; intraperitoneal administration
  hypolipemia, dose dependence: hypolipemia as a function of the doses
[8]
  time after injection at which the hypolipemizing effect starts to appear: 30 min
  time of maximum hypolipemizing effect: maximum at the end of two hours; also recorded: maximum effect at two hours
[8]; inferred in vivo
  stability towards adenosine deaminase (inferred from long duration of action): not destroyed by the adenosine deaminase
[8]; kinetic study
  concentrations of fatty acids, triglycerides, total cholesterol and phospholipides: significant decrease
[9]
  action on the activity of the HMG CoA reductase: no action
[10]
  action on the activity of ACAT: The same is true
[2]
  hypolipemia (reduction of fatty acids, phospholipides, triglycerides and cholesterol): causes a hypolipemia
